The record followed here is patent US20100240713A1, “AROMATIC AND HETEROAROMATIC COMPOUNDS USEFUL IN TREATING IRON DISORDERS” (XENON PHARMACEUTICALS INC., priority 2007, published 2010).

Counter-ions that a name gives are not always drawn.

Test system in one series: not given
Assay: not given
Details: not given
In general, melting point refers to the temperature, or range, at which the solid turns liquid. For the molecule `CCOC(=O)c1cc(C(=O)OCC)c(CSC(=N)N)cc1CSC(=N)N` (as salt: hydrobromid) [Example 3.4, diethyl 4,6-bis(carbamimidoylthiomethyl)isophthalate dihydrobromide], the melting point is 237 to 238 °C.

`N=C(N)SCc1cccc(CSC(=N)N)n1` (as salt: hydrobromid) [Example 3.12, pyridine-2,6-diylbis(methylene)dicarbamimidothioate dihydrobromide] gave a melting point of 208 to 210 °C.

As to `N=C(N)SCc1cccc2cccc(CSC(=N)N)c12` (as salt: hydrobromid) [Example 3.13, naphthalene-1,8-diylbis(methylene)dicarbamimidothioate dihydrobromide], the melting point was 230 to 233 °C.

With `N#Cc1c(CSC(=N)N)cccc1CSC(=N)N` (as salt: hydrobromid) [Example 3.14, (2-cyano-1,3-phenylene)bis(methylene)dicarbamimidothioate dihydrobromide], the melting point was 270 to 272 °C (dec.).

`COc1c(CSC(=N)N)cc(C)cc1CSC(=N)N` (as salt: hydrobromid) [Example 3.18, (2-methoxy-5-methyl-1,3-phenylene)bis(methylene)dicarbamimidothioate dihydrobromide] registered a melting point of 236 to 239 °C.

Molecule `Cc1c(CSC(=N)N)cccc1CSC(=N)N` (as salt: hydrobromid) [Example 3.21, (2-methyl-1,3-phenylene)bis(methylene)dicarbamimidothioate dihydrobromide] showed a melting point of 258 to 261 °C.

`Cc1c(C)c(C)c(CSC(=N)N)c(CSC(=N)N)c1C` (as salt: hydrobromid) [Example 3.22, (3,4,5,6-tetramethyl-1,2-phenylene)bis(methylene)dicarbamimidothioate dihydrobromide]: the melting point is over 265 °C.

Consider `CC(C)(SC(=N)N)c1cccc(C(C)(C)SC(=N)N)c1` (as salt: hydrobromid) [Example 6, 2-{1-[3-(1-carbamimidoylsulfanyl-1-methylethyl)phenyl]-1-methylethyl}-isothiourea dihydrobromide], for which the melting point is 142 to 144 °C.

`Cc1cc(C)c(C(C)SC(=N)N)c(C)c1C(C)SC(=N)N` (centres unmarked) (as salt: hydrobromid) [Example 6.1, 2-{1-[3-(1-carbamimidoylsulfanylethyl)-2,4,6-trimethylphenyl]ethyl}-isothiourea dihydrobromide]: the melting point lay in the range of 204 to 206 °C.

On to `Cc1cc(CSC(=N)N)c(O)c(CSC(=N)N)c1` (as salt: hydrobromid) [Example 6.2, (2-hydroxy-5-methyl-1,3-phenylene)bis(methylene)dicarbamimidothioate dihydrobromide], for which the melting point lay within 223 to 225 °C.

`Cc1c(C)c(CSC(=N)N)c(C)c(CSC(=N)N)c1C` (as salt: hydrochloride) [Example 3.5, (2,4,5,6-tetramethyl-1,3-phenylene)bis(methylene)dicarbamimidothioate dihydrochloride] showed a melting point of over 260 °C.

`N=C(N)SCc1c(Cl)c(Cl)c(Cl)c(CSC(=N)N)c1Cl` (as salt: hydrochloride) [Example 3.6, (2,4,5,6-tetrachloro-1,3-phenylene)bis(methylene)dicarbamimidothioate dihydrochloride] had a melting point of 208 to 210 °C.

For the molecule `N=C(N)SCc1nnc(CSC(=N)N)n1N` (as salt: hydrochloride) [Example 3.7, (4-amino-4H-1,2,4-triazole-3,5-diyl)bis(methylene)dicarbamimidothioate dihydrochloride], the melting point is 213 °C (dec.).

`N=C(N)SCc1n[nH]c(CSC(=N)N)n1` (as salt: hydrochloride) [Example 3.8, (1H-1,2,4-triazole-3,5-diyl)bis(methylene)dicarbamimidothiodate dihydrochloride] had a melting point of 196 to 200 °C.

Regarding `Cc1cc(C)c(CSC(=N)N)cc1CSC(=N)N` (as salt: hydrochloride) [Example 3.16, (4,6-dimethyl-1,3-phenylene)bis(methylene)dicarbamimidothioate dihydrochloride], the melting point was 248 to 251 °C.

In turn, `Cc1c(CSC(=N)N)cc(CSC(=N)N)c(C)c1Br` (as salt: hydrochloride) [Example 3.17, (5-bromo-4,6-dimethyl-1,3-phenylene)bis(methylene) dicarbamimidothioate dihydrochloride] yielded a melting point of 270 to 273 °C.

On to `Cc1c(O)c(C)c(CSC(=N)N)c(C)c1CSC(=N)N` (as salt: hydrochloride) [Example 3.19, (5-hydroxy-2,4,6-trimethyl-1,3-phenylene)bis(methylene) dicarbamimidothioate dihydrochloride], for which the melting point is 175 to 178 °C.

Molecule `Cc1nc(C)c(CSC(=N)N)c(C)c1CSC(=N)N` (as salt: hydrochloride) [Example 8, (2,4,6-trimethylpyridine-3,5-diyl)bis(methylene)dicarbamimidothioate dihydrochloride] showed a melting point of 185 to 187 °C.

Turning to `N=C(N)SC(=O)c1sc(C(=O)SC(=N)N)c(Cl)c1Cl` (as salt: hydrochloride) [Example 9, 2-(5-carbamimidoylsulfanecarbonyl-3,4-dichlorothiophene-2-carbonyl)isothiourea dihydrochloride], the melting point is 215 to 218 °C.

As for `Cc1cc(C)c(CNC(=N)N)c(C)c1CNC(=N)N` (as salt: toluenesulfonate) [Example 1, N-(3-guanidinomethyl-2,4,6-trimethylbenzyl)guanidine, bis(p-toluenesulfonate)], the melting point was over 250 °C.

Molecule `CN/C(=N\C#N)NCc1c(C)cc(C)c(CN/C(=N/C#N)NC)c1C` [Example 2, 1,3-di[(2-cyano-3-methylguanidino)methyl]-2,4,6-trimethylbenzene] had a melting point of 270 to 272 °C.

Molecule `N=C(N)Cc1cccc(CC(=N)N)c1` [Example 4, 2,2′-(1,3-phenylene)diacetimidamide] displayed a melting point of 200 to 205 °C.

Molecule `CNC(=N)SCc1c(C)cc(C)c(CSC(=N)NC)c1C.Cl` [Example 7, 1,3-di[(methylamidino)thiomethyl]-2,4,6-trimethylbenzene 4-methylbenzenesulfonate hydrochloride] yielded a melting point of 223 to 225 °C.

A further series has as its target T1, DMT1 (Homo sapiens, UniProt P49281).
T1 sequence (P49281 1-568): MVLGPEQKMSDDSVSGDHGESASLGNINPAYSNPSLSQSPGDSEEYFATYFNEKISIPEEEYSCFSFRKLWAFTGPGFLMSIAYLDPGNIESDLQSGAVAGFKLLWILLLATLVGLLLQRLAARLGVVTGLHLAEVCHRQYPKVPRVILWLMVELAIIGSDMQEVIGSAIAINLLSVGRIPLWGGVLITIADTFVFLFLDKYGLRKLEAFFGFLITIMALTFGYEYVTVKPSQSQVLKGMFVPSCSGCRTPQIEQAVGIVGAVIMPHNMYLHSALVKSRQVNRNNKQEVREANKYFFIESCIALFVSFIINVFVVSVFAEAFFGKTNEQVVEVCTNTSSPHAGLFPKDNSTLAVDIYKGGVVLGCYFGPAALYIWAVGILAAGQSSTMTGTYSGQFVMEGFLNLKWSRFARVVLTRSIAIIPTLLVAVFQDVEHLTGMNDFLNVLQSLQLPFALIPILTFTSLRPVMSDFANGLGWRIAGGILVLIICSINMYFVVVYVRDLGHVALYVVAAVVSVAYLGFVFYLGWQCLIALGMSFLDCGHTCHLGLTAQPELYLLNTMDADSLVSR
Briefly: DMT1 activity assay (IC50 activity level, Table 1). The format is cell-based. The settings on record: inhibition of DMT1. An excerpt:
This example discloses various in vitro assay for testing and profiling test agents against DMT1 stably expressed in cells of either an endogenous or recombinant origin. These assays can use stable cell lines overexpressing DMT1 or intestinal cells and intestinal tissue expressing endogenous DMT1. DMT1 function could also be assessed in other cell types that express DMT1. Of greatest relevance would be the erythrocytes (e.g. K562 cells) or hepatocytes (e.g. […]).
DMT1 function can be assessed in a number of ways, including monitoring fluorescence changes of an iron fluorophore (e.g. calcein), monitoring uptake of radiolabelled iron (^55Fe or ^59Fe) (Picard et al., J. Biol. Chem., 2000, 275(46):35738-45 and Wetli et al., Chem. Biol. 2006 September; 13(9):965-72), or by assessing the current or transport of iron and other metals into the cells or tissues using standard electrophysiological techniques (Gunshin et al., Nature, 1997, 388(6641):482-8.).
Variations of these assays involve alterations of incubation times, the iron status of the cells and tissues (which may be modulated by chemical chelators or by harvesting from iron deficient animals), the metal cation detected and the pH of the reaction can generally be made by conventional techniques known to those skilled in the art.
The Example numbers provided in Table 1 correspond to the Examples herein: […]
What is called IC50 is the concentration at which inhibition is half-maximal. `CN/C(=N\C#N)NCc1c(C)cc(C)c(CN/C(=N/C#N)NC)c1C` [Example 2, 1,3-di[(2-cyano-3-methylguanidino)methyl]-2,4,6-trimethylbenzene]: the IC50 was at least 1000 nM.

For the molecule `N=C(N)Cc1cccc(CC(=N)N)c1` [Example 4, 2,2′-(1,3-phenylene)diacetimidamide], the concentration for half-maximal inhibition (IC50) is at least 1000 nM.

With `CNC(=N)SCc1c(C)cc(C)c(CSC(=N)NC)c1C.Cl` [Example 7, 1,3-di[(methylamidino)thiomethyl]-2,4,6-trimethylbenzene 4-methylbenzenesulfonate hydrochloride], the IC50 was at least 1000 nM.
